Source: patent publication US4824860A, “Treatment of Parkinsons disease” (priority 1987, dated 1989)

Columns and labels:
[1] = Mouse spontaneous locomotor activity using individual cages equipped with photocells (test 1); type: in vivo; conditions: for dose profile of effect on locomotor activity: 'in these tests' (locomotor tests 1-3), inhibition at low, stimulation at high dose
Excerpt: 1. Mouse spontaneous locomotor activity using individual cages equipped with photocells.

[2] = Mouse spontaneous locomotor activity using treadwheels (test 2); type: in vivo
Excerpt: 2. Mouse spontaneous locomotor activity using treadwheels.

[3] = Mouse spontaneous locomotor activity measuring climbing frame behaviour (test 3); type: in vivo
Excerpt: 3. Mouse spontaneous locomotor activity measuring climbing frame behaviour.

[4] = Measurement of stereotyped behaviour in the mouse (test 4); type: in vivo
Excerpt: 4. Measurement of stereotyped behaviour in the mouse.

[5] = Rat spontaneous locomotor activity using photocell cages: measurement of stereotypy (test 5); type: in vivo
Excerpt: 5. Rat spontaneous locomotor activity using individual cages equipped with photocells: measurement of stereotypy.

[6] = Hyperactivity following direct administration into the mesolimbic nucleus accumbens of the rat (test 6); type: in vivo
Excerpt: 6. Measurement of hyperactivity following direct administration into the mesolimbic nucleus accumbens of the rat. An indicator of anti-depressant activity.
Enhancement of locomotor activity by amphetamine and other dopamine agonists is difficult to measure because it is complicated by the development of stereotypies. […] Direct action of a compound to cause hyperactivity following administration into the mesolimbic nucleus accumbens is considered to be indicative of anti-depressant activity.

[7] = Asymmetry and circling after unilateral administration into the extrapyramidal caudate-putamen (striatum) (test 7); type: in vivo, rat
Excerpt: 7. Effect on observed locomotor activity following direct administration into the extrapyramidal caudate-putamen (striatum). A test for anti-Parkinsonism potential.

[8] = Anti-depressant activity in the mouse using the Porsolt test (test 8); type: in vivo; conditions: mice
Excerpt: 8. Measurement of anti-depressant activity in the mouse using the `Porsolt Test`.

[9] = Anxiolytic activity in the mouse using a black and white test box (test 9); type: in vivo
Excerpt: 9. Anxiolytic activity in the mouse using a black and white test box.

[10] = test system: MPTP-treated marmoset; experiment: MPTP-treated marmoset model of anti-Parkinson activity (test 10); type: in vivo
Excerpt: 10. MPTP-treated marmoset model. A test for anti-Parkinson activity.
(i) Parkinsonism-like motor deficits (hypokinesia and bradykinesia) were induced in marmosets by the intranigral infusion of 1-methyl-4-phenyl-1,2,3,6-tetrahydropyridine (MPTP) for 13 days via an implanted injection unit and osmotic minipump (Test 10). […] Drug assessments were begun after 7-10 days of infusion.

[11] = test system: 5HT1 receptors; experiment: Receptor binding studies using rat brain: 5HT1
[12] = test system: dopamine D1 receptors; experiment: Receptor binding studies using rat brain: dopamine D1
[13] = 10 μg injected directly into the mesolimbic nucleus accumbens
[14] = 0.05 mg/kg s.c., mean n=4, P<0.05
[15] = 0.05 mg/kg s.c., mean of responding animals only
[16] = 0.1 mg/kg s.c., mean n=4, P<0.01
[17] = 1.0 mg/kg s.c., mean n=4, P<0.01
[18] = 0.1-1 mg/kg i.p., separate study

CCCN(CCC)CCc1cccc2c1CC(=O)N2.Cl [Compound A, 4-(2-di-n-propylaminoethyl)-2-(3H)-indolone hydrochloride]
spontaneous locomotor activity ([1]; photocell cages, 1.0 and 10.0 mg/kg i.p., statistically significant (P<0.01-0.001) at 10 mg/kg): inhibition of spontaneous locomotor activity
locomotor activity ([1]; photocell test, 100 mg/kg, P<0.001): Stimulation of locomotor activity
locomotor activity ([2]; treadwheel test, 100 mg/kg, P<0.001): Stimulation of locomotor activity
spontaneous locomotor activity ([2]; treadwheels, 1.0 and 10.0 mg/kg i.p.): inhibition of spontaneous locomotor activity
locomotor activity ([3]; 100 mg/kg, no stimulation): original inhibition was reversed
spontaneous locomotor activity ([3]; 1.0 and 10.0 mg/kg i.p., statistically significant at 1.0 mg/kg): inhibition of spontaneous locomotor activity
stereotypy ([4]; mouse, 1.0, 10.0 and 100 mg/kg i.p., only periodic sniffing): no dose dependent stereotypies
stereotypy ([5]; rat, 1.0, 10.0 and 100 mg/kg i.p., only periodic sniffing): no dose dependent stereotypies
spontaneous locomotion ([5]; rat, 10.0 and 100.0 mg/kg i.p., P<0.001): dose-related increases in spontaneous locomotion
duration of increase in spontaneous locomotion ([5]; rat, higher dose (100.0 mg/kg i.p.)): > 2.5 h
spontaneous locomotion ([6]; 1.0 μg into the nucleus accumbens, tendency to inhibition in first 10 minutes): ineffective
spontaneous locomotion [6, 13]: marked (P<0.001) increase in spontaneous locomotion
asymmetry and circling behaviour ([7]; 0.01-10.0 μg unilaterally into caudate-putamen, statistically significant at 1.0 and 10.0 μg): marked contralateral asymmetry and circling behaviour
anti-depressant activity ([8]; 0.1-10 mg/kg i/p.): statistically significant (P<0.05) anti-depressant activity
anti-depressant activity compared with amitriptyline ([8]; amitriptyline 2.4-40 mg/kg i.p.): greater than amitriptyline
period in the black area ([9]; 0.1-10 mg/kg i.p.): correspondingly reduced period in the black area
time spent in the white section ([9]; 0.1-10 mg/kg i.p.): statistically significant increase in the time spent in the white section
% time in head movements ([10]; 0.01 mg/kg s.c., mean n=4): 26%
% time spent in LMA ([10]; 0.01 mg/kg s.c., mean n=4): 4%
LMA (% control) ([10]; 0.01 mg/kg s.c., mean n=4): 26 % control
% time in head movements [10, 14]: 36%
% time spent in LMA [10, 14]: 12%
LMA (% control) [10, 14]: 47 % control
% time in head movements [10, 15]: 80%
% time spent in LMA [10, 15]: 23%
LMA (% control) [10, 15]: 70 % control
% time in head movements [10, 16]: 83%
% time spent in LMA [10, 16]: 29%
LMA (% control) [10, 16]: 93 % control
% time in head movements [10, 17]: 84%
% time spent in LMA [10, 17]: 28%
LMA (% control) [10, 17]: 103 % control
development of tolerance ([10]; 0.1, 1.0 mg/kg s.c. twice daily for 7 days): no development of tolerance
motor behaviour ([10]; MPTP marmosets, 0.05-1.0 mg/kg s.c., at 0.05 mg/kg 1 or 2 marmosets did not respond): fully restored normal motor behaviour
movements in the limbs, trunk, head and neck ([10]; MPTP marmosets, s.c., most marked effect): full restoration of normal movements
MPTP-induced motor deficits ([10]; oral, each of 0.1, 0.5 or 1.0 mg/kg, seven listed motor deficits): Partial reversal
response ([10]; oral, highest dose 1.0 mg/kg, n=3): supramaximal
response ([10]; oral, lowest dose 0.1 mg/kg, n=2): submaximal
emesis ([10]; oral, the two lower doses (0.1, 0.5 mg/kg)): No emesis

N[C@@H](Cc1ccc(O)c(O)c1)C(=O)O [L-DOPA, reference compound]
MPTP-induced motor deficits ([10]; 12.5 mg/kg i.p. 30 min. pretreatment, after benserazide 12.5 mg/kg s.c. 90 min. pretreatment): restored MPTP-induced motor deficits
effectiveness compared with Compound A ([10]; L-DOPA 12.5 mg/kg i.p. after benserazide 12.5 mg/kg s.c., versus 0.1 mg/kg s.c. Compound A): less effective than 0.1 mg/kg s.c. Compound A

CC(N)Cc1ccccc1 (stereo not drawn) [amphetamine, reference compound]
dose profile of effect on locomotor activity [1]: biphasic activity
stereotypy ([4]; mouse, doses up to 10.0 mg/kg i.p., continuous biting, gnawing and licking): marked stereotyped behaviour
stereotypy ([5]; rat, doses up to 10.0 mg/kg i.p., continuous biting, gnawing and licking): marked stereotyped behaviour
spontaneous locomotion [6, 13]: equally effective
asymmetry and circling behaviour ([7]; up to 100 μg unilaterally into caudate-putamen): inactive

CN1CCc2cccc3c2[C@H]1Cc1ccc(O)c(O)c1-3 [apomorphine, reference compound]
dose profile of effect on locomotor activity [1]: biphasic activity
stereotypy ([4]; mouse, 2.0 mg/kg s.c., continuous biting, gnawing and licking): marked stereotyped behaviour
stereotypy ([5]; rat, 2.0 mg/kg s.c., continuous biting, gnawing and licking): marked stereotyped behaviour
asymmetry and circling behaviour ([7]; up to 50 μg unilaterally into caudate-putamen): inactive

CC(C)C[C@H]1C(=O)N2CCC[C@H]2[C@]2(O)O[C@](NC(=O)[C@@H]3C=C4c5cccc6[nH]c(Br)c(c56)C[C@H]4N(C)C3)(C(C)C)C(=O)N12 [bromocriptine, reference compound]
swimming time ([8]; 0.1-1 mg/kg i.p., effect at the higher dose): statistically significant reduction in swimming time
investigatory activity in the black area [9, 18]: statistically significant increase in investigatory activity in the black area
light aversion [9, 18]: no change in the light aversion
MPTP-induced motor deficits ([10]; 0.1 mg/kg s.c.): little effect
affinity for 5HT1 receptors [11]: showed affinity

CCCN1C[C@H](CSC)C[C@@H]2c3cccc4[nH]cc(c34)C[C@H]21 [pergolide]
affinity for 5HT1 receptors [11]: showed affinity
affinity for dopamine D1 receptors [12]: bound to dopamine D1 receptors
